We go through 15 compounds from patent US9670197B2, “Small molecule modifiers of the Hec1-Nek2 interaction in G2/M” (The Regents of the University of California, priority 2013, dated 2017).

Where a SMILES comes first, the peptide text is derived from it. The star is where a group is joined. Cbz = O=C(OCc1ccccc1)*

For assay [1], the system named is HeLa. The assay can be described thus: Cancer cell growth inhibition, HeLa. It counts as cell-based. Conditions: Homo sapiens; Table 1, HeLa; read-out: HeLa IC50. As for the experimental part:
Cell lines and establishment of stable cell lines. Human breast cancer cell lines MDA-MB-231 and MDA-MB-468, osteosarcoma line U20S, cervical adenocarcinoma line HeLa, and normal skin fibroblast Hs27 were maintained in DMEM medium (Invitrogen, Grand Island, N.Y.) supplemented 10% fetal bovine serum (FBS) and 1% penicillin-streptomycin. The leukemia cell line K562 and glioblastoma cell line T98G were grown in RPMI 1640 supplemented 10% FBS and 1% penicillin-streptomycin. Normal mammary gland epithelial cell line MCF10A was cultured in DMEM/F12 (50:50) plus 5% horse serum, 0.1 μg/mL cholera toxin, 10 μg/mL insulin, 0.5 μg/mL hydrocortisone, and 20 ng/mL epidermal growth factor. To establish MDA-MB-468 cells that stably expressed each individual GFP-Hec1 deletion construct described above, cells were infected with retrovirus expressing GFP-Hec1 WT, GFP-Hec1 W395A and GFP-Hec1 WLK/AAA, and were selected with 2 μg/ml puromycin.

Assay [2] relates to MB468. As to the kind of experiment: Cancer cell growth inhibition, MB468 (MDA-MB-468). It is filed as cell-based. Conditions: Homo sapiens, Table 1, MB468, read-out: MB468 IC50.
Assay [3] deals with cancer cell lines. The assay can be described thus: Cancer cell growth inhibition. It is filed as cell-based.
Assay [4] concerns Hec1. The assay can be described thus: Biotin-conjugated INH pull-down of Hec1 and Hec1 mutants. It counts as binding.
Assay [5] has as its system Nek2. The assay can be described thus: Nek2 protein level in treated HeLa cells, western blot. It is filed as cell-based. The settings on record: co-treatment with INH41 or INH154. Here is the method:
INH-induced Nek2 degradation; INH-inhibition of Hec1 phosphorylation by Nek2. […] To evaluate whether INH treatment affected cell cycle profile or Nek2 mRNA level, we performed FACS and real-time PCR analysis.
Protein extraction and western blot analysis. The protein extractions and western blot analyses of Examples 4-6 were conducted as follows. Cell extracts were prepared and equal amounts of protein were separated by SDS-PAGE (10% w/v gel) followed by electrophoretic transfer to PVDF membranes (Millipore, Billerica, Mass.). After blocking with 5% w/v powdered non-fat milk, the membrane was incubated with different antibodies for overnight at 4° C. and treated for 1 hr with horseradish peroxidase-conjugated goat anti-mouse IgG and goat anti-rabbit IgG antibodies (GeneTex, Irvine, Calif.). ECL detection of the horseradish peroxidase reaction was performed according to the manufacturer's instructions (Millipore, Billerica, Mass.). Protein signal was measured on a LAS 4000 mini Imaging System (Fujifilm, Valhalla, N.Y.).
On the technique in general: A western blot detects proteins with antibodies after separation by electrophoresis.

One may read the IC50 as the concentration that inhibits the measured activity by half. Consider `Cc1cc(NC(=O)CCC(=O)O)cc(C)c1-c1csc(NC(=O)c2ccncc2)n1` [INH146, 4-(4-(2-(isonicotinamido)thiazol-4-yl)-3,5-dimethylphenylamino)-4-oxobutanoic acid], for which the concentration for half-maximal inhibition (IC50) is more than 5000 nM in assay [1] and more than 10000 nM in assay [2].
Regarding `COc1cc(C)cc(C)c1-c1csc(NC(=O)c2ccncc2)n1` [INH56], the IC50 in assay [1] is 1800 nM; in assay [2], 4500 nM.
As for `Cc1cc(N2CCOCC2)cc(C)c1-c1csc(NC(=O)c2ccncc2)n1` [INH168], the half-inhibitory concentration (IC50) worked out at 200 nM in assay [1] and 120 nM in assay [2]. Besides, in assay [3], the “inhibition of cancer cell growth, IC50 (in words)” value (shortened to “inhibition of cancer cell growth”) is listed as “sub-micromolar IC50”.
With `Cc1cc(N)cc(C)c1-c1csc(NC(=O)c2ccncc2)n1` [INH79, N-(4-(4-amino-2,6-dimethylphenyl)thiazol-2-yl)isonicotinamide], the results for the half-maximal inhibitory concentration (IC50) in assay [1] and in assay [2] were 2300 nM and 3200 nM, respectively.
Consider `Cc1cc(N2C(=O)CCC2=O)cc(C)c1-c1csc(NC(=O)c2ccncc2)n1` [INH160, N-(4-(4-(2,5-dioxopyrrolidin-1-yl)-2,6-dimethylphenyl)thiazol-2-yl)isonicotinamide], for which the half-inhibitory concentration (IC50) was found to be 5000 nM in assay [1] and 3300 nM in assay [2].
For `Cc1cc(O)cc(C)c1-c1csc(NC(=O)c2ccncc2)n1` [INH182, N-(4-(4-hydroxy-2,6-dimethylphenyl)thiazol-2-yl)isonicotinamide], the results for the IC50 in assay [1] and in assay [2] were 3500 nM and 2000 nM, respectively.
As for `Cc1cc([N+](=O)[O-])cc(C)c1-c1csc(NC(=O)c2ccncc2)n1` [INH78, N-(4-(2,6-Dimethyl-4-nitrophenyl)thiazol-2-yl)isonicotinamide], the results for the IC50 in assay [1] and in assay [2] were 630 nM and 1400 nM, respectively. Moreover, in assay [3], the “inhibition of cancer cell growth” value was “sub-micromolar IC50”.
On to `Cc1cc(NCC(=O)O)cc(C)c1-c1csc(NC(=O)c2ccncc2)n1` [INH156, N-(4-(2-(Isonicotinamido)thiazol-4-yl)-3,5-dimethylphenyl)-glycine], for which the half-inhibitory concentration (IC50) in assay [1] was determined as 2400 nM; in assay [2], 9400 nM.
As for `Cc1cc(C#N)cc(C)c1-c1csc(NC(=O)c2ccncc2)n1` [INH174, N-(4-(4-Cyano-2,6-dimethylphenyl)thiazol-2-yl)isonicotinamide], the IC50 in assay [1] was found to be 600 nM; in assay [2], 500 nM. Besides, in assay [3], the “inhibition of cancer cell growth” value is “sub-micromolar IC50”.
As to `Cc1cc(F)cc(C)c1-c1csc(NC(=O)c2ccncc2)n1` [INH80, N-(4-(4-fluoro-2,6-dimethylphenyl)thiazol-2-yl)isonicotinamide], the IC50 in assay [1] was found to be 2000 nM; in assay [2], 4400 nM.
Turning to `Cc1cc(N2CCC(OCCOCCOCCOCCNC(=O)CCCC[C@@H]3SC[C@@H]4NC(=O)N[C@@H]43)CC2)cc(C)c1-c1csc(NC(=O)c2ccncc2)n1` [biotin-INH154, N-(4-(2,6-dimethyl-4-(4-((13-oxo-17-((3aS,4S,6aR)-2-oxohexahydro-1H-thieno [3,4-d]imidazol-4-yl)-3,6,9-trioxa-12-azaheptadecyl)oxy)piperidin-1-yl)phenyl)thiazol-2-yl)isonicotinamide], the “binding of Hec1 W395A and W395A/L399A/K400A mutants” value in assay [4] is listed as “neither mutant was able to bind”.
`Cc1cc(NC(=O)C2CC2)cc(C)c1-c1csc(NC(=O)c2ccncc2)n1` [INH136, N-(4-(4-((cyclopropylcarbonyl)amino)-2,6-dimethylphenyl)thiazol-2-yl)isonicotinamide]: the IC50 in assay [1] stood at 1500 nM; in assay [2], 3400 nM.
On to `Cc1cc(N2CCN(C)CC2)cc(C)c1-c1csc(NC(=O)c2ccncc2)n1` [INH212, N-(4-(2,6-dimethyl-4-(4-methylpiperazin-1-yl)phenyl)thiazol-2-yl)isonicotinamide], for which the IC50 is 2500 nM in assay [1] and 2400 nM in assay [2].
For `CC(C)C[C@@H](C=O)NC(=O)[C@H](CC(C)C)NC(=O)[C@H](CC(C)C)NC(=O)OCc1ccccc1` [MG132, reference compound] (Cbz-Leu-Leu-Leu-aldehyde), the “effect on INH-induced degradation of Nek2” value in assay [5] is “prevented INH-induced degradation of Nek2”.
Turning to `COc1cncc(Oc2cc(C)c(-c3csc(NC(=O)c4ccncc4)n3)c(C)c2)n1` [INH81, N-(4-(4-((6-methoxypyrazin-2-yl)oxy)-2,6-dimethylphenyl)thiazol-2-yl)isonicotinamide], the IC50 in assay [1] worked out at 1400 nM; in assay [2] it was 400 nM. Further, the “inhibition of cancer cell growth” value in assay [3] is “sub-micromolar IC50”.
